Experimental data from BindingDB's records for doi:10.1021/jm050686b (Rheinische Friedrich-Wilhelms-Universitat Bonn, 2005).

Biological target: Papain (Carica papaya) (UniProt P00784)
Assay: Enzyme activities were calculated from kinetic measurements performed by spectrophotometric detection of the product p-nitroaniline (pNA) at wavelength of 405 nm. Progress curves were monitored over 10 min. Rate was determined for 7 different inhibitor concentrations in duplicate. The apparent inhibition constant, Ki (app) was determined by fitting

Chain of Papain (Carica papaya) (P00784 whole entry, looked up): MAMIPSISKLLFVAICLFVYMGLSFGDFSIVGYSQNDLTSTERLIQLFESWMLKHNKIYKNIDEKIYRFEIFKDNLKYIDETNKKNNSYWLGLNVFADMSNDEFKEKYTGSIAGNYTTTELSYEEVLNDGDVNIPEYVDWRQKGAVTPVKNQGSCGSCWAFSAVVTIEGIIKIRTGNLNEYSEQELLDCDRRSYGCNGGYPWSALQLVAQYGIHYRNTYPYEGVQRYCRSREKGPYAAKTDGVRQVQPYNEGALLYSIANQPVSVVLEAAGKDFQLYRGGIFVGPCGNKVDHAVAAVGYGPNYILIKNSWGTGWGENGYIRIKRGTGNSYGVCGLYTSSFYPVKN

Ki: 45 µM
Structure (SMILES): CC(C)(C)OC(=O)N[C@@H](Cc1ccsc1)C(=O)NCC#N [tert-butyl N-[(1S)-1-[(cyanomethyl)carbamoyl]-2-(thiophen-3-yl)ethyl]carbamate]
